In paper PMC4995043, “A Diverse Family of Host-Defense Peptides (Piscidins) Exhibit Specialized Anti-Bacterial and Anti-Protozoal Activities in Fishes” (PLoS ONE, 2016):
Converted amounts (≈) assume the structure as drawn. Read-outs that look alike come from different tables or passages of the source. Where a SMILES comes first, the peptide text is derived from it.

Legend:
Tetrahymena pyriformis = details: piscidin 1 not among peptides tested, previously observed results, cited from earlier work; for PC100 (100% parasiticidal concentration): lowest concentration that killed all T. pyriformis
Description: Table 4 Minimum parasiticidal concentrations (PCmin) and 100% parasiticidal concentrations (PC100) of various synthetic hybrid striped bass piscidins against the ciliated protozoan, Tetrahymena pyriformis. | column: PCmin (uM) / SB P1; PC100 (uM) / SB P1; PC100 (uM) / WB P1

Lactococcus garvieae = type: cell-based; details: 18 h
Description: (§1) Fish bacterial pathogens, Streptococcus iniae (stock 00–1425; isolated from rainbow trout, Oncorhynchus mykiss), Lactococcus garvieae (stock 00–1422; multiple antibiotic-resistant strain), Vibrio anguillarum (stock 91–3057; ATCC 19264), and Aeromonas salmonicida (stock 91–3053; ATCC® 7965™), and human bacterial pathogens, Enterococcus faecalis (stock 00–1403; ATCC 29212), Staphylococcus aureus (ATCC 29213), Shigella flexneri (stock 00–1402; ATCC 12022), and Escherichia coli (stock 00–1405; ATCC 25922), were cultured from frozen stocks stored in glycerol at -80°C. L. garvieae, A. salmonicida, E. faecalis, S. aureus, and S. flexneri were grown in Mueller Hinton Broth (MHB); the MHB was supplemented with 1% NaCl for L. garvieae. S. iniae, and V. anguillarum were grown in Tryptic Soy Broth (TSB) supplemented with 1.5% NaCl and E. coli was grown in Luria-Bertani Broth (LB). The fish and human pathogens were grown at 25°C and 37°C, respectively, while shaking at 200 rpm for 18 h except for S. iniae, which was grown for 48 h. The cultures were passaged at least three times each when in log phase to ensure that they had acclimated to culture.
(§2) The minimum inhibitory concentrations (MIC) and minimum bactericidal concentrations (MBC) were determined as previously described following standard methods recommended by the […] for MIC90 and MBC determinations of clinical isolates with some modifications. Overnight bacterial cultures were diluted to 80–88% transmittance in their appropriate medium. The cultures were then diluted again to 1:200 and 100 μL was pipetted into each of 3 wells in 11 columns of a 96-well plate (Corning, Inc., Tewksbury, MA), the 12th column loaded with media without bacteria as a sterility control and blank.
(§3) The synthetic piscidin peptides (piscidins 1, 4, and 7 from striped bass; piscidins 1, 5, and 6 from white bass; and piscidin 3 corresponding to both striped bass and white bass) were prepared by diluting the 4 mg/mL stocks to 2 mg/mL in 0.2% bovine serum albumin (BSA) + 0.01% acetic acid. These were then serially diluted to a concentration of 3.9 μg/mL in the same diluent. The piscidin dilutions were added to the first 10 columns of the 96-well plate containing bacteria, […] was loaded with diluent only to act as a positive growth control. The final concentrations tested were 200 μg/mL to 0.39 μg/mL. The plates were incubated with shaking at 200 rpm for 18 h, except for S. iniae, which was incubated for 48 h. Fish pathogens and human pathogens were incubated at 25°C and 37°C, respectively. […] The MIC was taken as the lowest concentration of piscidin that reduced growth when compared to the growth control by more than 50%. To determine the MBC, 20 μL of the media from the wells of the three lowest piscidin concentrations that had no visible growth of bacteria were plated onto the appropriate media plates and incubated as described above. Colonies were counted to determine whether growth was equal to or less than 0.1% of the colony forming units (CFUs) in the original inoculum. The MBC was defined as the lowest concentration of piscidin that killed at least 99.9% of the CFUs in the original inoculum.

Streptococcus iniae = type: cell-based; details: 48 h; for MIC: S. iniae stock 00–1425, Gram +, fish pathogen, TSB + 1.5% NaCl, OD630, MIC = lowest concentration reducing growth by more than 50%, 3 wells, 200 to 0.39 μg/mL tested
Description: as §1, §2, §3

Aeromonas salmonicida = type: cell-based; details: 18 h
Description: as §1, §2, §3

Staphylococcus aureus = type: cell-based; details: 37°C, 18 h; for MIC: S. aureus ATCC 29213, Gram +, human pathogen, MHB, OD630, growth reduced by more than 50%; for MBC: S. aureus ATCC 29213, kills at least 99.9% of CFUs of original inoculum
Description: as §1, §2, §3

Vibrio anguillarum = type: cell-based; details: 18 h
Description: as §1, §2, §3

Enterococcus faecalis = type: cell-based; details: 18 h
Description: as §1, §2, §3

E. coli = type: cell-based, Escherichia coli; details: 18 h
Description: as §1, §2, §3

Shigella flexneri = type: cell-based; details: S. flexneri ATCC 12022; kills at least 99.9% of CFUs of original inoculum; 37°C, 18 h
Description: as §1, §2, §3

[1] = L. garvieae stock 00–1422, kills at least 99.9% of CFUs of original inoculum, 25°C
[2] = S. iniae stock 00–1425, lowest concentration killing at least 99.9% of CFUs of original inoculum, plated from MIC wells, 25°C
[3] = E. faecalis ATCC 29212, kills at least 99.9% of CFUs of original inoculum, 37°C

Structure (SMILES)	PC100 (100% parasiticidal concentration) (Tetrahymena pyriformis) [µM]	MBC (Lactococcus garvieae; [1]) [µM]	MIC (Streptococcus iniae; 25°C) [µM]	MBC (Streptococcus iniae; [2]) [µM]	MBC (Aeromonas salmonicida) [µM]	MIC (Aeromonas salmonicida) [µM]	MIC (Staphylococcus aureus) [µM]	MBC (Staphylococcus aureus) [µM]	MBC (Vibrio anguillarum) [µM]	MIC (Enterococcus faecalis) [µM]	MBC (Enterococcus faecalis; [3]) [µM]	MBC (E. coli) [µM]	MIC (E. coli) [µM]	further results
CC[C@H](C)[C@H](NC(=O)CNC(=O)[C@H](CCCNC(=N)N)NC(=O)[C@H](Cc1ccccc1)NC(=O)[C@@H](NC(=O)[C@H](Cc1c[nH]cn1)NC(=O)[C@H](Cc1c[nH]cn1)NC(=O)[C@H](Cc1ccccc1)NC(=O)[C@@H](N)Cc1ccccc1)[C@@H](C)CC)C(=O)N[C@H](C(=O)N[C@@H](Cc1c[nH]cn1)C(=O)N[C@H](C(=O)NCC(=O)N[C@@H](CCCCN)C(=O)N[C@H](C(=O)N[C@H](C(=O)N[C@@H](Cc1c[nH]cn1)C(=O)N[C@@H](CCCCN)C(=O)N[C@@H](CC(C)C)C(=O)N[C@H](C(=O)N[C@H](C(=O)NCC(=O)O)[C@@H](C)O)C(C)C)[C@@H](C)CC)[C@@H](C)O)C(C)C)C(C)C [WB P1] (H-FFHHIFRGIVHVGKTIHKLVTG-OH; N-terminus and C-terminus assumed)	2.48	2.46 (≈ 6.26 µg/mL)	2.46	2.46 (≈ 6.26 µg/mL)	>78.61	>78.61	2.46 (≈ 6.26 µg/mL)	2.46 (≈ 6.26 µg/mL)	9.83 (≈ 25 µg/mL)	1.23 (≈ 3.13 µg/mL)	2.46 (≈ 6.26 µg/mL)	>78.61	4.91 (≈ 12.5 µg/mL)	
CC[C@H](C)[C@H](NC(=O)CNC(=O)[C@H](CCCNC(=N)N)NC(=O)[C@H](Cc1ccccc1)NC(=O)[C@@H](NC(=O)[C@H](Cc1c[nH]cn1)NC(=O)[C@H](Cc1c[nH]cn1)NC(=O)[C@H](Cc1ccccc1)NC(=O)[C@@H](N)Cc1ccccc1)[C@@H](C)CC)C(=O)N[C@H](C(=O)N[C@@H](Cc1c[nH]cn1)C(=O)N[C@H](C(=O)NCC(=O)N[C@@H](CCCCN)C(=O)N[C@H](C(=O)N[C@H](C(=O)N[C@@H](Cc1c[nH]cn1)C(=O)N[C@@H](CCCNC(=N)N)C(=O)N[C@@H](CC(C)C)C(=O)N[C@H](C(=O)N[C@H](C(=O)NCC(=O)O)[C@@H](C)O)C(C)C)[C@@H](C)CC)[C@@H](C)O)C(C)C)C(C)C [SB P1] (H-FFHHIFRGIVHVGKTIHRLVTG-OH)	5	1.22 (≈ 3.14 µg/mL)	1.22	1.22 (≈ 3.14 µg/mL)			2.43 (≈ 6.25 µg/mL)	2.43 (≈ 6.25 µg/mL)			2.43 (≈ 6.25 µg/mL)			PCmin (minimum parasiticidal concentration) (Tetrahymena pyriformis; lowest concentration that killed at least one T. pyriformis): 2.5 µM; MIC (Lactococcus garvieae; L. garvieae stock 00–1422 (multiple antibiotic-resistant), Gram +, fish pathogen, MHB + 1% NaCl, 25°C, OD630, growth reduced by more than 50%): 1.22 µM; MBC (Shigella flexneri): 4.86 µM (≈ 12.5 µg/mL); MIC (Aeromonas salmonicida; A. salmonicida ATCC 7965, Gram -, fish pathogen, MHB, 25°C, OD630, growth reduced by more than 50%): >77.76 µM; MIC (Vibrio anguillarum; V. anguillarum ATCC 19264, Gram -, fish pathogen, TSB + 1.5% NaCl, 25°C, OD630, growth reduced by more than 50%): 2.43 to 4.86 µM; MBC (Vibrio anguillarum; V. anguillarum ATCC 19264, kills at least 99.9% of CFUs of original inoculum, 25°C): 9.72 µM (≈ 25 µg/mL); MIC (Enterococcus faecalis; E. faecalis ATCC 29212, Gram +, human pathogen, MHB, 37°C, OD630, growth reduced by more than 50%): 1.22 µM (≈ 3.14 µg/mL); MIC (E. coli; E. coli ATCC 25922, Gram -, human pathogen, LB, 37°C, OD630, growth reduced by more than 50%): 4.86 µM (≈ 12.5 µg/mL)
CC[C@H](C)[C@H](NC(=O)CNC(=O)[C@H](CCCNC(=N)N)NC(=O)[C@H](Cc1ccccc1)NC(=O)[C@@H](NC(=O)[C@H](Cc1c[nH]cn1)NC(=O)[C@H](Cc1c[nH]cn1)NC(=O)[C@@H](NC(=O)[C@@H](N)Cc1ccccc1)[C@@H](C)CC)[C@@H](C)CC)C(=O)N[C@H](C(=O)N[C@@H](Cc1c[nH]cn1)C(=O)N[C@@H](C)C(=O)NCC(=O)N[C@@H](CCCNC(=N)N)C(=O)N[C@@H](CO)C(=O)N[C@H](C(=O)NCC(=O)N[C@@H](CCCNC(=N)N)C(=O)N[C@@H](Cc1ccccc1)C(=O)N[C@@H](CC(C)C)C(=O)N[C@H](C(=O)NCC(=O)O)[C@@H](C)O)[C@@H](C)CC)C(C)C [SB/WB P3] (H-FIHHIFRGIVHAGRSIGRFLTG-OH; N-terminus and C-terminus assumed)					>80.26	>80.26			20.06 (≈ 50 µg/mL)	1.26 (≈ 3.14 µg/mL)		80.26 (≈ 200 µg/mL)	80.26 (≈ 200 µg/mL)	MBC (Lactococcus garvieae): 5.02 µM (≈ 12.5 µg/mL); MBC (Streptococcus iniae): 2.51 µM (≈ 6.25 µg/mL); MBC (Enterococcus faecalis): 10.03 µM (≈ 25 µg/mL)
